Data published in patent US9370569B2 (priority 2014, dated 2016).
pIC50: −log10 of the molar value.

What follows are molecules tested against influenza RNA polymerase (Influenza A virus, UniProt P03431) (assay: Influenza polymerase assay (radiolabeled nucleotide incorporation)). Settings: nucleotide triphosphates in influenza polymerase assay.
Format: biochemical
Molecule O=c1ccn([C@@H]2O[C@@](COP(=O)(O)OP(=O)(O)OP(=O)(O)O)(C(F)F)[C@@H](O)[C@H]2O)c(=O)[nH]1 [TPP-1] has a pIC50 of 4.00 to 5.00. In the case of O=c1[nH]c(=O)n([C@@H]2O[C@@](COP(=O)(O)OP(=O)(O)OP(=O)(O)O)(C(F)F)[C@@H](O)[C@H]2O)cc1Cl [TPP-2], the pIC50 was 4.00 to 5.00. O=c1[nH]c(=O)n([C@@H]2O[C@@](COP(=O)(O)OP(=O)(O)OP(=O)(O)O)(C(F)F)[C@@H](O)[C@H]2O)cc1F [TPP-3] was tested, and the pIC50 was 4.00 to 5.00. For Nc1ccn([C@@H]2O[C@@](COP(=O)(O)OP(=O)(O)OP(=O)(O)O)(C(F)F)[C@@H](O)[C@H]2O)c(=O)n1 [TPP-4], the pIC50 was > 5.00. Nc1nc(=O)n([C@@H]2O[C@@](COP(=O)(O)OP(=O)(O)OP(=O)(O)O)(C(F)F)[C@@H](O)[C@H]2O)cc1Cl [TPP-5] gave a pIC50 of 4.00 to 5.00. Nc1nc(=O)n([C@@H]2O[C@@](COP(=O)(O)OP(=O)(O)OP(=O)(O)O)(C(F)F)[C@@H](O)[C@H]2O)cc1F [TPP-6] was tested, and the pIC50 was > 5.00. Nc1nc(N)c2ncn([C@@H]3O[C@@](COP(=O)(O)OP(=O)(O)OP(=O)(O)O)(C(F)F)[C@@H](O)[C@H]3O)c2n1 [TPP-7] was tested, and the pIC50 was < 4.00. For Nc1ncnc2c1ncn2[C@@H]1O[C@@](COP(=O)(O)OP(=O)(O)OP(=O)(O)O)(C(F)F)[C@@H](O)[C@H]1O [TPP-8], the pIC50 was > 5.00. Nc1ncnc2ncn([C@@H]3O[C@@](COP(=O)(O)OP(=O)(O)OP(=O)(O)O)(C(F)F)[C@@H](O)[C@H]3O)c12 [TPP-9] was tested, and the pIC50 was > 5.00. Nc1nc2c(ncn2[C@@H]2O[C@@](COP(=O)(O)OP(=O)(O)OP(=O)(O)O)(C(F)F)[C@@H](O)[C@H]2O)c(=O)[nH]1 [TPP-10] was tested, and the pIC50 was > 5.00.
